Series [1] deals with PAD4 (Homo sapiens (Human), UniProt Q9UM07). Put plainly: PAD4 enzyme activity colorimetric assay (citrullination of BAEE). The settings on record: 0.2 μg PAD4, 5 mM BAEE, 37° C. Type of series: biochemical. As to the method: PAD4 enzyme activity assays are conducted to determine PAD4 inhibitory activity. PAD4 inhibition efficacy of the inhibitors is determined using a colorimetric assay for citrullination production.
The inhibition efficacy of PAD4 inhibitors were determined by colorimetric measurement of citrulline generated by PAD4 catalyzed citrullination of BAEE. 0.2 μg PAD4 was pre-incubated with inhibitors in 100 μl buffer containing 50 mM Tris-HCl pH7.6, 5 mM CaCl2, 2 mM DTT for 0.5 hr at 37° C. The reaction was started by the addition of BAEE to 5 mM and halted 1.5 hr later with the addition of 25 μl 5 M HClO4. Then the samples were briefly centrifuged at 12000 rpm for 2 min at 4° C. and the supernatant (120 μl) were assayed for citrulline by mixing with 120 μl reagent A (0.5% w/v diacetyl monoxime and 15% w/v NaCl in water) and 240 μl reagent B (1% w/v antipyrine, 0.15% w/v ferric chloride, 25% v/v H2SO4 and 25% v/v H3PO4). The mixtures were boiled for 15 min and cooled to room temperature in ice bath. The absorbance of the reagent mixtures at 464 nm was measured by Thermo BioMate™ 3 spectrophotometer. Efficacies of inhibitors are indicated as relative PAD4 citrullination activity by normalizing the PAD4 activity without inhibitor treatment to 100%.

Series [2] concerns U2OS p53-shRNA cells. As to the kind of experiment: MTT assay of U2OS cells with or without p53 depletion by shRNA. The series is classed as cell-based, human. Particulars: same inhibitor concentration, p<0.02. As to the method: MTT assays are performed in U2OS cells with or without p53 depletion to analyze the role of p53 in YW3-56 mediated cell growth inhibition and autophagy.
(§1) U2OS and S-180 cells were cultured in Dulbecco modified Eagle medium (DMEM) supplemented with 10% fetal bovine serum and 1% penicillin-streptomycin in a 5% CO2 incubator. U2OS p53-shRNA and U2OS Ctrl-shRNA cells were generated as described in Li, P. et al., Regulation of p53 target gene expression by peptidylarginine deiminase 4. Mol Cell Bial 28 (15), 4745-4758 (2008). Concentrations and duration of YW3-56 treatment were performed as specified in the figures and text. For starvation assay, U2OS cells were first cultured in serum-free DMEM for 16 hr, 10% fetal bovine serum and different concentrations of YW3-56 was then added back and cells were further incubated for 8 hr before further analyses. SESN2 siRNA (Santa Cruz) and GFP siRNA (Dharmacon Inc.) were transfected into U2OS cells using the XtremeGene siRNA transfection reagents (Roche Inc.). Cells were incubated in the presence of the siRNA for 48 hr before adding YW3-56 and further incubated for 8 hr before analyses.

For series [3], the system named is U2OS human osteosarcoma cells. Put plainly: MTT assay of U2OS cancer cell growth inhibition. The series is classed as cell-based. On the procedure: MIT assays are conducted to evaluate activity to inhibit cancer cell growth. U2OS human osteosarcoma cells were treated with individual compounds at different concentrations for 72 hr in 24-well plates. MIT reagent was added to a final concentration of 0.5 mg/ml and further incubated for 4 hr. The yellow-colored MTT was reduced to insoluble purple-colored Formazan in living cells. Culture medium was removed and DMSO was added to dissolve Formazan into solution. The absorbance of the solution was then measured at 570 nm using a Thermo BioMate™ 3 spectrophotometer. Results are shown in FIG. 1 and average and standard deviations are shown (n>=3).
(§2) Cells were treated with individual compounds at different concentrations for 72 hr in 24-well plates. MTT reagent was added to a final concentration of 0.5 mg/ml and further incubated for 4 hr. The yellow-colored MTT was reduced to insoluble purple-colored Formazan in living cells. Culture medium was removed and DMSO was added to dissolve Formazan into solution. The absorbance of the solution was then measured at 570 nm using a Thermo BioMate™ 3 spectrophotometer.
On the technique in general: Tetrazolium assays rely on reduction of a dye to a coloured formazan, in cell work by metabolically active cells.

Series [4] has as its system S180 cells. Put plainly: MTT assay of S180 cell growth inhibition. Type of series: cell-based. Particulars: Mus musculus, S-180. As to the method: as §2
For series [5], the system named is p53 and its target genes. Put plainly: RT-qPCR and Western blot of p53 and its target genes in U2OS cells. Type of series: cell-based, human. As to the method:
Western blot and immunostaining was performed essentially as described in Li, P. et al., Oncogene 29 (21), 3153-3162 (2010). Antibodies used in Western blot were anti-p53 (Sigma), anti-PAD4, anti-p21 (Sigma), anti-PUMA (Calbiochem), anti-SESN2 (Abeam), anti-p70S6K (Cell Signaling), anti-p70S6K-pT389 (Cell Signaling), anti-LC3 (Cell Signaling) and anti-β-actin (Sigma) at appropriate dilutions. Anti-LC3B antibody (Cell Signaling) was used for immunostaining. DNA was stained by the DNA dye Hoechst.
RNA was extracted using RNeasy Mini Kit (Qiagen) per manufacturer's instructions. 1 μg RNA was reverse transcribed into cDNA using qScript cDNA SuperMix (Quanta Biosciences) per manufacturer's instructions. Quantitative PCR was performed using SYBR Green SuperMix (Quanta Biosciences) in StepOnePlus Real-Time PCR System (Applied Biosystems). FIG. 10 is a graph showing p53 and its target gene expression induced in S180 cells by YW3-56 in a concentration dependent manner.
as §1
The relative abundance of each gene is compared with β-actin as a reference. Increase in several p53 target genes, such as p21, GADD45, PUMA, OKL38, DRAM, and Sestrin2, is detected after YW3-88 treatment at 12 μM concentration. […] Increase in p21 and PUMA proteins is detected.
On the technique in general: In qPCR the cycle at which signal appears reflects the starting amount.

A short description of series [6]: Three-month YW3-56 treatment of nude mice: body and vital organ size. The series is classed as in vivo, mouse. Particulars: 10 mg/kg, three months. On the procedure: FIGS. 11a and 11b show results of the effect of long term YW3-56 treatment in mice. A pair of nude mice is mock injected or injected with YW3-56 for three months. RT-qPCR analyses of p53 and its target gene mRNA levels in control and YW3-56 treated mice. […] However, these changes are at low levels and no clear change in liver weight and morphology is observed.
A three-month YW3-56 treatment including daily injection of YW3-56 at 10 mg/kg body weight in a pair of nude mice is performed and the size of mouse body and vital organs is not altered after YW3-56 treatment as shown in FIG. 13.

Each structure is given as a SMILES string.

PAD4, sequence (Q9UM07 whole entry, species assumed): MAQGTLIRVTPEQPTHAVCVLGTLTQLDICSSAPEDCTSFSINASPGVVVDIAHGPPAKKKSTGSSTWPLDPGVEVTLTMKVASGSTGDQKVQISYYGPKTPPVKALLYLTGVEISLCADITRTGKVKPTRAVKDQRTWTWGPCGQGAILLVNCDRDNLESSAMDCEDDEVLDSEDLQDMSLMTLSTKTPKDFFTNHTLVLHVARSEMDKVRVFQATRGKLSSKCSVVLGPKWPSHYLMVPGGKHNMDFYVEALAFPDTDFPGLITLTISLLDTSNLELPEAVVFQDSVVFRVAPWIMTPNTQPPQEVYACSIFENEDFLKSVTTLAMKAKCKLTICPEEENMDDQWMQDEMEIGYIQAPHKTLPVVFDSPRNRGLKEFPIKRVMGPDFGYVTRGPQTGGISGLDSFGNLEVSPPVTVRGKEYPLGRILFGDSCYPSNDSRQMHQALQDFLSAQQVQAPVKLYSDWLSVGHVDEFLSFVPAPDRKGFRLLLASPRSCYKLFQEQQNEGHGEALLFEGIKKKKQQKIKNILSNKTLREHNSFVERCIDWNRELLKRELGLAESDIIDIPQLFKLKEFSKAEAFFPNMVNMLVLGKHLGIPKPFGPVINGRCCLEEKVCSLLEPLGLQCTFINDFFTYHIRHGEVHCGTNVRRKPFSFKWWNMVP

`CN(C)c1ccc2cc(C(=O)N[C@@H](CCCNC(=N)CCl)C(=O)NCc3ccccc3)ccc2c1` [YW3-56]: the IC50 in series [1] was 1 to 5 µM; in series [3] (Homo sapiens, read-out: 50% inhibition Cell growth, U2OS cells, MTT, 72 hr) it was ~2.5 µM; in series [4], 10 to 15 µM. The “efficacy on cell growth inhibition after p53 depletion” value in series [2] was “decreased significantly”. In addition, the “U2OS cell growth in MTT assay” value in series [3] (20 μM, 3 days) is “abolished cell growth”. The “DRAM mRNA” value in series [5] (U2OS cells) is “not altered”. Also, the p70S6K phosphorylation entry in series [5] (U2OS cells with or without p53 depletion) was “inhibited”. Also, the “sestrin1 and 2 mRNA and Sestrin2 protein levels” value in series [5] (U2OS cells, concentration dependent) is on record as “significantly increased”. Besides, the “size of mouse body and vital organs” value in series [6] is “not altered”.
